Converted amounts (≈) assume the structure as drawn. The source made the active and inactive calls. No cut-off for these calls is given here.
Tests used:
[1] = Effect on endogenous p97 protein level in HEK293T cells up to 40 uM after 16 hrs by immunoblot analysis; type: ADME, cell-based; conditions: human, hek-293t
[2] = Thermodynamic solubility of the compound in DPBS after 24 hrs by LC-MS/MS analysis; type: physicochemical; conditions: read-out: Therm_solubility
[3] = Antiproliferative activity against human MIAPaCa2 cells assessed as reduction in cell viability after 72 hrs by MTT assay; type: functional, cell-based; conditions: MIA PaCa-2, 72 h
[4] = Terminal phase half life in mouse liver microsomes at 1 uM in presence of UDPGA by LC-MS/MS analysis; type: ADME; conditions: read-out: beta t1/2
[5] = Half life in human plasma by LC-MS/MS analysis; type: ADME, cell-free
[6] = Half life in mouse plasma by LC-MS/MS analysis; type: ADME, cell-free
[7] = target: Transitional endoplasmic reticulum ATPase (Homo sapiens) (UniProt P55072); assay: Inhibition of p97 in HEK293T cells assessed as induction of ER-stress by measuring ATF4 expression at 20 uM after 16 hrs by immunoblot analysis; type: cell-based; conditions: HEK-293T
[8] = target: Transitional endoplasmic reticulum ATPase (Homo sapiens) (UniProt P55072); assay: Inhibition of p97 in HEK293T cells assessed as induction of ER-stress by measuring ATF3 expression up to 40 uM after 16 hrs by immunoblot analysis; type: cell-based; conditions: HEK-293T
[9] = Terminal phase half life in human liver microsomes at 1 uM in presence of UDPGA by LC-MS/MS analysis; type: ADME; conditions: read-out: beta t1/2
[10] = Primary phase half life in human liver microsomes at 1 uM in presence of NADPH by LC-MS/MS analysis; type: ADME; conditions: read-out: alphat1/2
[11] = Primary phase half life in mouse liver microsomes at 1 uM in presence of NADPH by LC-MS/MS analysis; type: ADME; conditions: read-out: alphat1/2

Transitional endoplasmic reticulum ATPase (Homo sapiens), sequence (P55072 2-806 limits assumed): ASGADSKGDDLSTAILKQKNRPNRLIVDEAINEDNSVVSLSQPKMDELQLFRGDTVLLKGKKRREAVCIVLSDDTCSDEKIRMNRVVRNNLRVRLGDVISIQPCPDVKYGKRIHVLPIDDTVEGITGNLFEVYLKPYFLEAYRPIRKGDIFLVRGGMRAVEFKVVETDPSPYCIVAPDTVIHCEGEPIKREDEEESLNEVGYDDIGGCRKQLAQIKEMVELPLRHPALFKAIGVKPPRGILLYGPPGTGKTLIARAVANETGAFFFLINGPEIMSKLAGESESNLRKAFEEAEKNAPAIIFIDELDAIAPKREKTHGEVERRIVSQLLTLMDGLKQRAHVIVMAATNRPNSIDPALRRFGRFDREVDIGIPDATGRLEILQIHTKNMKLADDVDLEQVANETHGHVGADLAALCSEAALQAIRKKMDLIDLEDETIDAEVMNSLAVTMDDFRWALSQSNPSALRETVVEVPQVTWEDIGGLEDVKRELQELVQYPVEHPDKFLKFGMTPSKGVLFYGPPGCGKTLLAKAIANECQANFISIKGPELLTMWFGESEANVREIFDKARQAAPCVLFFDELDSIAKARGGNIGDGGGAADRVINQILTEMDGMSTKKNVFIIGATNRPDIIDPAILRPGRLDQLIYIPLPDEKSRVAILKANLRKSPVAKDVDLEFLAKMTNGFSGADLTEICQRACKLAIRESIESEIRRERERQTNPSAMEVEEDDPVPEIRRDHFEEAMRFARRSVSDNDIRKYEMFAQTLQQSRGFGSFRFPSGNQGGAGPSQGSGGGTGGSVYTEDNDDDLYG

SMILES	Activity [1]	solubility thermodynamic at 24 h [2] [µM]	EC50 [3] [µM]	half-life at 1 µM [4] [h]	half-life [5] [h]	half-life [6] [h]	inhibition [7]	inhibition [8]	half-life at 1 µM [9] [h]	half-life at 1 µM [10] [h]	half-life at 1 µM [11] [h]
COCCOc1ccc(NC(=O)N(O)C2N(c3ccc(OCCOC)cc3)C(=O)N(CC(=O)N/N=C/C=C/c3ccc([N+](=O)[O-])o3)C2(C)C)cc1 (stereo not given)	Non-Toxic	64.2 (≈ 45.6 µg/mL)	38.4	–	–	–	–	–	–	–	–
COCCOc1ccc(NC(=O)N(O)C2N(c3ccc(Cl)cc3)C(=O)N(CC(=O)N/N=C/C=C/c3ccc([N+](=O)[O-])o3)C2(C)C)cc1 (stereo not given)	Non-Toxic	2.3 (≈ 1.54 µg/mL)	5.4	16.5	9.5	12.5	Active	Active	23.1	2.07	1.75
COCCOc1ccc(N2C(=O)N(CC(=O)N/N=C/C=C/c3ccc([N+](=O)[O-])o3)C(C)(C)C2N(O)C(=O)Nc2ccc(Cl)cc2)cc1 (stereo not given)	Non-Toxic	2.8 (≈ 1.88 µg/mL)	6.3	14.4	17.2	15.7	Active	Active	57.8	0.53	2.32
